Molecules are shown by their SMILES. pIC50: −log10 of the molar value.

This note sets out measurements from ChEMBL document CHEMBL4610100, “Jatrophane Diterpenoids from Euphorbia esula as Inhibitors of RANKL-Induced Osteoclastogenesis” (J Nat Prod, 2020).

The subject of the assay is BMDM. Description: Anti-osteoporosis activity in C57BL/6 mouse bone marrow macrophages assessed as inhibition of M-CSF/GST-tagged recombinant RANKL-induced osteoclast differentiation measured after 5 days by TRAP staining based assay. The format is functional, cell-based. The note with it: C57BL/6, BMDM, 120 h.

For the compound `C=C1[C@H](OC(=O)c2ccccc2)[C@@H](O)[C@@H](OC(=O)c2cccnc2)C(C)(C)/C=C/[C@@H](C)C(=O)[C@@]2(O)C[C@H](C)[C@H](OC(C)=O)[C@@H]2[C@H]1OC(C)=O`, the pIC50 is 5.00.

Regarding `C=C1[C@H](OC(=O)c2ccccc2)[C@@H](OC(C)=O)[C@@H](OC(=O)c2cccnc2)C(C)(C)/C=C/[C@@H](C)C(=O)[C@@]2(O)C[C@H](C)[C@H](OC(C)=O)[C@@H]2[C@H]1OC(C)=O`, the pIC50 is less than 5.00.
